pKi: −log10 of the molar value. Where two headings read alike, the source gives them in different places.
Experiments:
[1] = biological target: T1, human A1 adenosine receptors (Homo sapiens, UniProt P30542); test: Displacement of [^3H]CHA binding, human A1 adenosine receptors in CHO cells (agonist radioligand)
T1 sequence (P30542 1-326): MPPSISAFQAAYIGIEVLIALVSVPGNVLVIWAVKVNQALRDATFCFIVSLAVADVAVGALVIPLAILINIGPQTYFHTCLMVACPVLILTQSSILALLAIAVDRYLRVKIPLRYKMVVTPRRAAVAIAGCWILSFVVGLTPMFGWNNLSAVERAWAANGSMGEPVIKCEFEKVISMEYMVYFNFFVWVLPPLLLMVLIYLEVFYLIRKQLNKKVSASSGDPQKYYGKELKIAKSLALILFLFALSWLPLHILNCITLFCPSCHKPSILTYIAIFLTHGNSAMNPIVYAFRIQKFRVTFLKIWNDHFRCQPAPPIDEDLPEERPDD

[2] = biological target: T2, human A3 adenosine receptors (Homo sapiens, UniProt P0DMS8); conditions: for A1/A3: ratio Ki(A1)/Ki(A3), agonist radioligands
T2 sequence (P0DMS8 1-318): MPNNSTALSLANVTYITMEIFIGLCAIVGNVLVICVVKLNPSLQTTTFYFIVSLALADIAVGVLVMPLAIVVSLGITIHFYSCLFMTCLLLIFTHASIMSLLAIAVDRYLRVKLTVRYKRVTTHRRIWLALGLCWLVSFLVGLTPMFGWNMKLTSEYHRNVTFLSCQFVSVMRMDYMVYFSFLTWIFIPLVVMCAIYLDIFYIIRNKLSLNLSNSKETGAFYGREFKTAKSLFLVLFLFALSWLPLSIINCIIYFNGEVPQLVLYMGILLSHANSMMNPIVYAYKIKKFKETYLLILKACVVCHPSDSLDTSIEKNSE

[3] = biological target: T3, human A2A adenosine receptors (Homo sapiens, UniProt P29274); test: Displacement of [^3H]CGS21680 binding, human A2A adenosine receptors in CHO cells (agonist radioligand); conditions: read-out: Ki(A2A). Displacement of [^3H]CGS21680 binding to human A2A adenosine receptors exp. in CHO cells.
T3 construct: expressed in transfected cells; host or cells: CHO cells
T3 sequence (P29274 whole entry): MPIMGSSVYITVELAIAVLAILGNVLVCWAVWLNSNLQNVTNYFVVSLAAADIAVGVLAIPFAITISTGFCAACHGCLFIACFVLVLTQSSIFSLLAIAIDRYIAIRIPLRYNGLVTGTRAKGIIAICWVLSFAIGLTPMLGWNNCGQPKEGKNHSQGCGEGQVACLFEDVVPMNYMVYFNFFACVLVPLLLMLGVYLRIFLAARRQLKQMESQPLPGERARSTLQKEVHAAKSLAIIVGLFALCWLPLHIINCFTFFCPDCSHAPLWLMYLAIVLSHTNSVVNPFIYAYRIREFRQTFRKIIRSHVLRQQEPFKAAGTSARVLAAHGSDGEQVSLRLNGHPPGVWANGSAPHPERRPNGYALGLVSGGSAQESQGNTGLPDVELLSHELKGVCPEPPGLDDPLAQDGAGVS

[4] = human A2A, CHO cells, [^3H]CGS21680

Row | Compound | melting point | also measured
1 | CCNC(=O)[C@H]1O[C@@H](n2cnc3c(NC(=O)Nc4ccccc4S(=O)(=O)NC45C[C@H]6C[C@@H](C4)C[C@@H](C5)C6)ncnc32)C(O)C1O (stereo partly drawn) [Compound 109, 1-Deoxy-N-ethyl-1-[[6-[[[2-N-(adamantan-1-yl)-sulfonamidophenyl]amino]carbonyl]amino]-9H-purin-9-yl]-b-D-ribofuran-uronamide] | 159 to 161 °C | 
2 | CCNC(=O)[C@H]1O[C@@H](n2cnc3c(NC(=O)Nc4ccccc4S(N)(=O)=O)ncnc32)C(O)C1O (stereo partly drawn) [Compound 106, 1-Deoxy-N-ethyl-1-[[6-[[(2-sulfonamidophenyl)amino]-carbonyl]amino]-9H-purin-9-yl]-b-D-ribofuranuronamide] | 188 to 189 °C | 
3 | CCNC(=O)[C@H]1O[C@@H](n2cnc3c(NC(=O)Nc4ccccc4S(=O)(=O)N(C)C(C)C)ncnc32)C(O)C1O (stereo partly drawn) [Compound 107, 1-Deoxy-N-ethyl-1-[[6-[[[2-N-(isopropyl)-N-(methyl)-sulfonamidophenyl]amino]carbonyl]amino]-9H-purin-9-yl]-b-D-ribofuranuron-amide] | 142 to 144 °C | 
4 | CCNC(=O)[C@H]1O[C@@H](n2cnc3c(NC(=O)Nc4cccc(S(=O)(=O)N(C)C(C)C)c4)ncnc32)C(O)C1O (stereo partly drawn) [Compound 112, 1-Deoxy-N-ethyl-1-[[6-[[[3-N-(isopropyl)-N-(methyl)-sulfonamidophenyl]amino]carbonyl]amino]-9H-purin-9-yl]-b-D-ribofuranuron-amide] | 147 to 148 °C | 
5 | C=CCN(CC=C)S(=O)(=O)c1ccc(NC(=O)Nc2ncnc3c2ncn3[C@@H]2O[C@H](C(=O)NCC)[C@@H](O)[C@H]2O)cc1 [Compound 99, 1-Deoxy-1-[6-[[[[4-[N,N-bis(allyl)amino-sulfonyl]phenyl]amino]carbonyl]amino]-9H-purin-9-yl]-N-ethyl-β-D-ribofuranuronamide] | 126 °C | pKi [1]: 6.42; pKi [2]: 8.00; A1/A3 [2]: 38; pKi [3, 4]: < 6.00
6 | CCCCCNS(=O)(=O)c1ccccc1NC(=O)Nc1ncnc2c1ncn2[C@@H]1O[C@H](C(=O)NCC)C(O)C1O (stereo partly drawn) [Compound 108, 1-Deoxy-N-ethyl-1-[[6-[[[2-N-(pentyl)-sulfonamido-phenyl]amino]carbonyl]amino]-9H-purin-9-yl]-b-D-ribofuranuronamide] | 155 to 157 °C | 
7 | CCNC(=O)[C@H]1O[C@@H](n2cnc3c(NC(=O)Nc4ccccc4S(=O)(=O)N4CC=CC4)ncnc32)C(O)C1O (stereo partly drawn) [Compound 110, 1-Deoxy-N-ethyl-1-[[6-[[[2-(2,5-dihydropyrrol-1-yl)sulfonylphenyl]amino]carbonyl]amino]-9H-purin-9-yl]-b-D-ribofuranuronamide] | 149 to 151 °C | 
8 | CCNC(=O)[C@H]1O[C@@H](n2cnc3c(NC(=O)Nc4cccc(S(=O)(=O)Nc5ccc(OC)cc5)c4)ncnc32)C(O)C1O (stereo partly drawn) [Compound 105, 1-Deoxy-N-ethyl-1-[[6-[[[3-N-(4-methoxyphenyl)-sulfonamidophenyl]amino]carbonyl]amino]-9H-purin-9-yl]-b-D-ribofuran-uronamide] | 206 to 208 °C (dec.) | 
9 | CCNC(=O)[C@H]1O[C@@H](n2cnc3c(NC(=O)Nc4ccc(S(=O)(=O)N(CC)CC)cc4)ncnc32)[C@H](O)[C@@H]1O [Compound 100, 1-Deoxy-1-[6-[[[[4-[N,N-bis(ethyl)amino-sulfonyl]phenyl]amino]carbonyl]amino]-9H-purin-9-yl]-N-ethyl-β-D-ribofuranuronamide] | 168 °C | pKi [3, 4]: < 6.00
10 | CCCCCNS(=O)(=O)c1cccc(NC(=O)Nc2ncnc3c2ncn3[C@@H]2O[C@H](C(=O)NCC)C(O)C2O)c1 (stereo partly drawn) [Compound 104, 1-Deoxy-N-ethyl-1-[[6-[[[3-N-(pentyl)-sulfonamido-phenyl]amino]carbonyl]amino]-9H-purin-9-yl]-b-D-ribofuranuronamide] | 158 to 159 °C | 
11 | CCNC(=O)[C@H]1O[C@@H](n2cnc3c(NC(=O)Nc4ccc(S(=O)(=O)NC5C=CCC5)cc4)ncnc32)[C@H](O)[C@@H]1O (stereo partly shown) [Compound 101] |  | pKi ([1]; read-out: Ki(A1). Displacement of [^3H]CHA binding to human A1 adenosine receptors exp. in CHO cells., human A1, CHO cells, [^3H]CHA, confidence limits in parentheses): 6.60; A1/A3 [2]: 13.16; pKi [3]: < 6.00
12 | CCNC(=O)[C@H]1O[C@@H](n2cnc3c(NC(=O)Nc4cccc(S(=O)(=O)NC56C[C@H]7C[C@@H](C5)C[C@@H](C6)C7)c4)ncnc32)C(O)C1O (stereo partly drawn) [Compound 113, 1-Deoxy-N-ethyl-1-[[6-[[[3-N-(adamantan-1-yl)-sulfonamidophenyl]amino]carbonyl]amino]-9H-purin-9-yl]-b-D-ribofuran-uronamide] | 188 to 189 °C | 
13 | CCCN(CCC)S(=O)(=O)c1ccc(NC(=O)Nc2ncnc3c2ncn3[C@@H]2O[C@H](C(=O)NCC)[C@@H](O)[C@H]2O)cc1 [Compound 102, 1-Deoxy-1-[6-[[[[4-[N,N-bis(propyl)aminosulfonyl]phenyl]amino]-carbo-nyl]amino]-9H-purin-9-yl]-N-ethyl-β-D-ribofuranuronamide] |  | pKi [1]: 6.46; pKi [2]: 7.85; pKi [3, 4]: < 6.00
14 | CCNC(=O)[C@H]1O[C@@H](n2cnc3c(NC(=O)Nc4ccccc4S(=O)(=O)Nc4ccc(OC)cc4)ncnc32)C(O)C1O (stereo partly drawn) [Compound 103, 1-Deoxy-N-ethyl-1-[[6-[[[2-N-(4-methoxyphenyl)-sulfonamidophenyl]amino]carbonyl]amino]-9H-purin-9-yl]-b-D-ribofuran-uronamide] | 168 to 170 °C | 
15 | CCNC(=O)[C@H]1O[C@@H](n2cnc3c(NC(=O)Nc4cccc(S(=O)(=O)N5CC=CC5)c4)ncnc32)C(O)C1O (stereo partly drawn) [Compound 114, 1-Deoxy-N-ethyl-1-[[6-[[[3-(2,5-dihydropyrrol-1-yl)sulfonylphenyl]amino]carbonyl]amino]-9H-purin-9-yl]-b-D-ribofuranuronamide] | 145 to 146 °C | 
16 | CCNC(=O)[C@H]1O[C@@H](n2cnc3c(NC(=O)Nc4ccc(S(=O)(=O)N(C)C)cc4)ncnc32)C(O)C1O (stereo partly drawn) [Compound 98, 1-Deoxy-1-[6-[[[[4-[N,N-(dimethyl)amino-sulfonyl]phenyl]amino]carbonyl]amino]-9H-purin-9-yl]-N-ethyl-β-D-ribofuranuronamide] | 176 °C | pKi [1]: 6.55; pKi [3, 4]: < 6.00
17 | CCNC(=O)[C@H]1O[C@@H](n2cnc3c(NC(=O)Nc4ccc(S(=O)(=O)N(C)C(C)C)cc4)ncnc32)C(O)C1O (stereo partly drawn) [Compound 97, 1-Deoxy-1-[6-[[[[4-[N-(1-methylethyl)-N-(methyl)-aminosulfonyl]phenyl]amino]carbo-nyl]amino]-9H-purin-9-yl]-N-ethyl-β-D-ribofuranuronamide] | 140 °C | 

Source: US7511133B2, “Adenosine A3 receptor agonists” (King Pharmaceuticals Research and Development, Inc., priority 2003, dated 2009)
